Data reported in DBAASP.
≈ marks a conversion by molar mass, not a printed value.

Key:
Test in all cases: ≥ marks a high value that may be exact or a test limit, other limits are often not marked, values filed in µg/mL are converted to µM
[1] = test system: Leishmania major MHOM/IL/67/JERICHO-II
[2] = test system: Escherichia coli HB101
[3] = test system: Staphylococcus aureus Cowan 1
[4] = test system: Escherichia coli ATCC 23506
[5] = test system: Enterococcus faecalis PCM 2673
[6] = test system: Klebsiella pneumoniae ATCC 700603
[7] = test system: Candida glabrata ATCC 15126
[8] = test system: Staphylococcus aureus ATCC 9144
[9] = test system: Pseudomonas aeruginosa ATCC 9027
[10] = test system: Staphylococcus aureus ATCC 25923
[11] = test system: Escherichia coli ATCC 25922
[12] = test system: Candida albicans ATCC 10231
[13] = test system: Streptococcus pneumoniae ATCC 49619
[14] = test system: Aspergillus niger ATCC 16404
[15] = test system: Staphylococcus aureus CPCC 100520
[16] = test system: Candida albicans CPCC 400416
[17] = test system: Escherichia coli CPCC 100521
[18] = test system: Candida albicans 08030401
[19] = test system: Shigella dysenteriae
[20] = test system: Staphylococcus aureus ATCC 2592
[21] = test system: Candida albicans 08030102
[22] = test system: Candida albicans 08022821
[23] = test system: Candida albicans 08032815
[24] = test system: Candida albicans ATCC 2002
[25] = test system: Pseudomonas aeruginosa 213
[26] = test system: Candida albicans C627
[27] = test system: Staphylococcus aureus C623
[28] = test system: Pseudomonas aeruginosa LES400
[29] = test system: Pseudomonas aeruginosa H103
[30] = test system: Enterococcus faecium mic80
[31] = test system: Escherichia coli ESBL 63103
[32] = test system: Pseudomonas aeruginosa ATCC 27853
[33] = test system: Staphylococcus aureus ATCC 29213
[34] = test system: Serratia marcescens ATCC 21202
[35] = test system: Salmonella enterica subsp. enterica serovar Enteritidis ATCC 13076
[36] = test system: Streptococcus pyogenes ATCC 19615
[37] = test system: Bacillus cereus ATCC 11778

`CSCC[C@H](NC(=O)[C@@H](NC(=O)[C@H](CCCCN)NC(=O)[C@H](Cc1c[nH]c2ccccc12)NC(=O)[C@H](CC(C)C)NC(=O)[C@H](C)N)[C@@H](C)O)C(=O)N[C@@H](CC(C)C)C(=O)N[C@@H](CCCCN)C(=O)N[C@@H](CCCCN)C(=O)N[C@@H](CC(C)C)C(=O)NCC(=O)N[C@H](C(N)=O)[C@@H](C)O` [ALWKTMLKKLGT] showed an MIC [1] of no less than 54.2 µM, an MIC [2] of no less than 54 µM and an MIC [3] of no less than 54 µM.

Compound `CC[C@H](C)[C@H](NC(=O)[C@H](C)NC(=O)[C@H](CCC(=O)O)NC(=O)[C@H](CO)NC(=O)[C@@H](N)Cc1ccccc1)C(=O)N[C@@H](CCCCN)C(=O)N[C@@H](CCCCN)C(=O)N[C@H](C(=O)N[C@H](C(=O)N[C@@H](CC(=O)O)C(=O)N[C@@H](Cc1ccccc1)C(=O)N[C@@H](CC(C)C)C(=O)NCC(N)=O)[C@@H](C)CC)[C@@H](C)CC` [FSEAIKKIIDFLG] has an MIC [4] of no less than 173 µM, an MIC [5] of no less than 173 µM and an MIC [6] of 86.4 µM (≈ 128 µg/mL). The MIC [7] was no less than 173 µM, the MIC [8] was no less than 173 µM and the MIC [9] was greater than 173 µM. For the same compound, the MIC [10] was greater than 173 µM, the MIC [11] was 173 µM (≈ 256 µg/mL) and the MIC [12] was greater than 173 µM. It also gave an MIC [13] of no less than 173 µM and an MIC [14] of no less than 173 µM.

Compound `CC[C@H](C)[C@H](N)C(=O)N[C@H](C(=O)NCC(=O)N1CCC[C@H]1C(=O)N[C@H](C(=O)N[C@@H](CC(C)C)C(=O)NCC(=O)N[C@@H](CC(C)C)C(=O)N[C@H](C(=O)NCC(=O)N[C@@H](CCCCN)C(=O)N[C@@H](C)C(=O)N[C@@H](CC(C)C)C(=O)NCC(=O)NCC(=O)N[C@@H](CC(C)C)C(=O)N[C@@H](CC(C)C)C(N)=O)[C@@H](C)CC)C(C)C)[C@@H](C)CC` [IIGPVLGLIGKALGGLL] has an MIC [15] of no less than 160 µM, an MIC [16] of no less than 160 µM and an MIC [17] of no less than 639 µM.

`CC[C@H](C)[C@H](NC(=O)[C@H](CCC(N)=O)NC(=O)[C@H](CCCCN)NC(=O)[C@H](Cc1ccc(O)cc1)NC(=O)[C@H](CC(C)C)NC(=O)[C@H](CCC(N)=O)NC(=O)[C@@H]1CCCN1C(=O)[C@H](CCSC)NC(=O)[C@H](CCCCN)NC(=O)[C@@H](NC(=O)[C@H](CCCN=C(N)N)NC(=O)[C@H](CCCCN)NC(=O)[C@@H](NC(=O)[C@H](CCSC)NC(=O)[C@@H](NC(=O)[C@H](CC(C)C)NC(=O)[C@@H](NC(=O)[C@@H](N)CCCN=C(N)N)[C@@H](C)CC)[C@@H](C)O)[C@@H](C)O)C(C)C)C(=O)N[C@H](C(=O)N[C@H]1CSSC[C@@H](C(=O)O)NC(=O)[C@H]([C@@H](C)O)NC(=O)[C@H](CCCCN)NC(=O)[C@H](Cc2ccccc2)NC(=O)[C@H](CC(C)C)NC(=O)[C@H](CCCN=C(N)N)NC1=O)C(C)C` [RILTMTKRVKMPQLYKQIVCRLFKTC] was tested, and the MIC [18] was 15.6 µM (≈ 50 µg/mL), the MIC [19] was 15.6 µM (≈ 50 µg/mL) and the MIC [20] was 15.6 µM (≈ 50 µg/mL). For the same compound, the MIC [21] was 31.3 µM (≈ 99.9 µg/mL), the MIC [22] was 7.81 µM (≈ 25 µg/mL) and the MIC [11] was 31.3 µM (≈ 99.9 µg/mL). For the same compound, the MIC [23] was no less than 62.5 µM and the MIC [24] was 3.13 µM (≈ 9.99 µg/mL).

`CC(C)C[C@H](NC(=O)[C@H](CC(C)C)NC(=O)[C@H](CCCN=C(N)N)NC(=O)[C@H](Cc1c[nH]c2ccccc12)NC(=O)[C@H](Cc1c[nH]c2ccccc12)NC(=O)[C@H](CCCN=C(N)N)NC(=O)[C@H](CCCCN)NC(=O)[C@H](Cc1c[nH]c2ccccc12)NC(=O)[C@@H](N)CCCN=C(N)N)C(=O)O` [RWKRWWRLL] gave an MIC [25] of no less than 45.7 µM, an MIC [26] of 5.72 µM (≈ 8 µg/mL) and an MIC [27] of 5.72 µM (≈ 8 µg/mL). For the same compound, the MIC [28] was 22.9 µM (≈ 32 µg/mL), the MIC [10] was 11.4 µM (≈ 16 µg/mL) and the MIC [29] was 22.9 µM (≈ 32 µg/mL). It also gave an MIC [30] of 5.72 µM (≈ 8 µg/mL) and an MIC [31] of 11.4 µM (≈ 16 µg/mL).

`CSCC[C@H](NC(=O)[C@H](CO)NC(=O)[C@H](CS)NC(=O)[C@@H](NC(=O)[C@H](CCC(=O)O)NC(=O)[C@H](CC(C)C)NC(=O)[C@H](CC(C)C)NC(=O)[C@@H]1CCCN1C(=O)[C@H](CC(C)C)NC(=O)[C@@H](N)C(C)C)[C@@H](C)O)C(=O)N[C@H](C(=O)N[C@@H](CS)C(=O)N[C@@H](Cc1c[nH]c2ccccc12)C(=O)N[C@@H](CCC(=O)O)C(=O)N[C@@H](CC(N)=O)C(=O)N[C@@H](CC(N)=O)C(=O)N[C@@H](CCC(N)=O)C(=O)N[C@H](C(=O)N[C@@H](Cc1ccccc1)C(=O)NCC(=O)N[C@@H](CCCCN)C(=O)O)[C@@H](C)O)[C@@H](C)O` [VLPLLETCSMTCWENNQTFGK] showed an MIC [32] greater than 41.4 µM, an MIC [33] greater than 41.4 µM and an MIC [6] greater than 41.4 µM. It also gave an MIC [34] of no less than 41.4 µM, an MIC [35] of no less than 41.4 µM and an MIC [36] of no less than 41.4 µM. It also gave an MIC [11] greater than 41.4 µM and an MIC [37] of no less than 41.4 µM.
